Measured values reported in patent US20090104119A1, “Dendrimer Based Compositions And Methods Of Using The Same” (priority 2004, published 2009).

Experiments:
[1] = mouse, in vivo
Description: Recipient animal and tumor model. Immunodeficient, 6- to 8-weekold athymic nude female mice [Sim:(NCr) nu/nu fisol] were purchased from Simonsen Laboratories, Inc. (Gilroy, Calif.). Five- to 6-week-old Fox Chase severe combined immunodeficient (SCID; CB-17/lcrCrl-scidBR) female mice were purchased from the Charles River Laboratories (Wilmington, Mass.) and housed in a specific pathogen-free animal facility at the University of Michigan Medical Center in accordance with the regulations of the University's Committee on the Use and Care of Animals as well as with federal guidelines, including the Principles of Laboratory Animal Care. Animals were fed ad libitum with Laboratory Autoclavable Rodent Diet 5010 (PMI Nutrition International, St. Louis, Mo.). Three weeks before tumor cell injection, the food was changed to a folate-deficient diet (TestDiet, Richmond, Ind.). For urine and feces collection, animals were housed in metabolic rodent cages (Nalgene, Rochester, N.Y.).
Tumor cell line. The KB human cell line, which overexpresses the folate receptor (See, e.g., Turek et al, J Cell Sci 106, 423 (1993)), was purchased from the American Type Tissue Collection (Manassas, Va.) and maintained in vitro at 37° C., 5% CO2 in folate-deficient RPMI 1640 supplemented with penicillin (100 units/mL), streptomycin (100 μg/mL), and 10% heat-inactivated fetal bovine serum. Before injection in the mice, the cells were harvested with trypsin-EDTA solution, washed, and resuspended in PBS. The cell suspension (5×10^6 cells in 0.2 mL) was injected s.c. into one flank of each mouse using a 30-gauge needle. In the biodistribution studies, the tumors were allowed to grow for 2 weeks until reaching ˜0.9 cm^3 in volume. The formula chosen to compute tumor volume was for a standard volume of an ellipsoid, where V= 4/3π (½ length×½ width×½ depth). With an assumption that width equals depth and […], the formula used was V=½×length×width^2. Targeted drug delivery using conjugate injections was started on the fourth day after implantation of the KB cells.
Biodistribution and excretion of tritiated dendrimer. […] Both tritiumlabeled conjugates were delivered at equimolar concentrations of the modified dendrimer. At 5 minutes, 2 hours, 1 day, 4 days, and 7 days postinjection, the animals were euthanized and samples of tumor, heart, lung, liver, spleen, pancreas, kidney, and brain were taken. […] The mice were euthanized at 5 minutes, 1 day, and 4 days following injection, and tissues were harvested as above. Blood was collected at each time point via cardiac puncture. Each group included three to five mice. Urine and feces samples were collected at 2, 4, 8 and 12 hours and 1, 2, 3, and 4 days.
Radioactive tissue samples were prepared as described in Nigavekar et al, Pharm Res 21, 476 (2004). The tritium content was measured in a liquid scintillation counter (LS 6500, Beckman Coulter, Fullerton, Calif.). The values of measured radioactivity were adjusted for the counting efficiency of the instrument and used to derive radioactivity (1 μCi=2.22×10^6 dpm) per sample. These values were then normalized by tissue weight and the specific radioactivity of the conjugates was reported as a percentage of the injected dosage (% ID/g). The excreted radioactivity (dendrimer) via urine and feces was reported as a percentage of the injected dosage (% ID).
Biodistribution of tritiated dendrimers. […] The mice were maintained on a folate-deficient diet for the duration of the experiment to minimize the circulating levels of folic acid (See, e.g., Mathias et al., J Nucl Med 29, 1579 (1998)). […] Mice were evaluated at various time points (5 minutes to 7 days) following i.v. administration of the conjugates.

KB cells [2] = assay: Inhibition of cell growth by total cell protein; conditions: 150 nM FA with 150 nM MTX, 24 h, then 6 d fresh medium; total cell protein
Description: Cell culture and treatment. KB cells were maintained in folate-free medium containing 10% serum (See, e.g., Quintana et al, Pharm. Res. 19, 1310 (2002)) to provide extracellular FA similar to that found in human serum. Cells were plated in 12-well plates for uptake studies, in 24-well plates for cell growth analysis, and in 96-well plates for XTT assay. Cells were rinsed with FA-free medium containing dialyzed serum and incubated at 37° C. with dendrimer-drug conjugates for the indicated time periods and concentrations. KB cells were also maintained in RPMI medium containing 2 μM FA to obtain cells which express low FAR.
Evaluation of dendrimer cytotoxicity. Cell growth was determined by assay of the total protein in lysates of treated cells using a bicinchoninic acid reagent (PIERCE, and by XTT assay, using a kit from Roche.
Time course and dose dependent inhibition of cell growth. Previous studies have shown that MTX-induced cytotoxicity is detectable in vitro only if the medium is completely deprived of FA (See, e.g., Sobrero & Bertino, Int. J. Cell Cloning 4, 51 (1986)). The effect of the trifunctional dendrimers on cell growth was tested in cells incubated in a FA-deficient medium. Cells were treated with 300 nM conjugates (equivalent of 1500 nM MTX) or 1500 nM free MTX for 1-4 days, and cell proliferation was determined by estimation of cellular protein content. Cells were treated for 2 days with different concentrations of the conjugates or free MTX (the conjugate concentration is given as MTX equivalents, with 5 MTX per dendrimer molecule). KB cells which express high and low FAR were incubated with 30 nM of the dendrimers for 1 hr at 37° C., rinsed, and the fluorescence of cells was determined by flow cytometric analysis (See. e.g., FIG. 21, left panel).
KB cells were treated with 150 or 500 nM MTX in the presence or absence of equimolar concentrations of free FA for 24 h. […] The cells were rinsed to remove the drugs and incubated with fresh medium for an additional 6 d, and total cell protein was determined.

KB cells [3] = assay: Inhibition of cell growth by XTT assay; assay type: cell-based, human; conditions: for inhibition of cell growth, XTT: 1, 2 or 3 days
Description: (§1) Cell culture and treatment.
Evaluation of dendrimer cytotoxicity.
Because the binding of the conjugate to KB cells reaches maximal uptake within 1 h (Quintana et al, 2002. Pharmaceutical Research 19: 1310-1316.), the effect of the G5-FI-FA-MTX on cell growth was initially tested by pre-incubation of cells with the conjugate for 1 h, followed by incubation in a drug-free medium for 5 d. […] When the cells were pre-incubated with dendrimers for 4 h, there was a modest decrease of about 10% in cell growth as determined by XTT assay. The cytotoxicity measurements were therefore done by incubation with the dendrimer for a minimum of 24 h, a pre-incubation time period shown to induce significant cytotoxicity.
The inhibition of cell growth induced by the conjugates was also tested by XTT assay which is based on the conversion of XTT to formazan by the active mitochondria of live cells (See, e.g., Roehm et al, J Immunol Methods 142, 257 (1991)).
As free FA blocks the uptake of the dendrimers as well as rescues cells from MTX-induced cytotoxicity, the effect of pre-incubation of cells with excess FA on the anti-proliferative effect of G5-FITC-FA-MTX was tested. KB cells were exposed to different concentrations of the conjugate or free MTX for 24 h in the absence or presence of 50 μM FA. The incubation medium was removed, the cells were rinsed and incubated with fresh medium for 5 additional days in the absence of the drugs, and the XTT assay was performed (See, e.g., FIG. 24, □, ▪, represents cells treated with MTX; Δ, ▴, represents cells treated with G5-FITC-FA-MTX).
The anti-proliferative effect of the MTX-conjugates was compared to conjugates that lacked either the FA or the FITC molecule. KB cells were incubated with 30 nM of the conjugates (=150 nM effective MTX concentration) for 24 h and the incubation medium was removed. The cells were rinsed and incubated for an additional 5 d in fresh medium in the absence of the drugs, and the XTT assay was performed.

[4] = test system: KB cells which express a high cell surface FA receptor (FAR); assay: Cellular uptake/binding of dendrimers in high-FAR KB cells, flow cytometry; assay type: cell-based, human
Description: as §1
(§2) Flow Cytometry and Confocal Microscopy. The standard fluorescence of the dendrimer solutions was quantified using a Beckman spectrofluorimeter. For flow cytometric analysis of the uptake of the targeted polymer, cells were trypsinized and suspended in PBS containing 0.1% bovine serum albumin (PBSB) and analyzed using a Becton Dickinson FACScan analyzer. The FL1-fluorescence of 10,000 cells was measured and the mean fluorescence of gated viable cells was quantified. Confocal microscopic analysis was performed in cells plated on a glass cover-slip, using a Carl Ziess confocal microscope. Fluorescence and differential interference contrast (DIC) images were collected simultaneously using an argon laser, using the appropriate filters for FITC.
The cellular uptake of the dendrimers was measured in KB cells which express a high cell surface FA receptor (FAR). The FA-conjugated dendrimers bound to the cells in a dose-dependent fashion, with 50% binding at 10-15 nM for both the G5-FITC-FA and G5-FITC-FA-MTX, while the control dendrimer G5-FITC was not detected in the KB cells (See, e.g., FIG. 18A). Identical binding curves were obtained for the G5-FITC-FA and G5-FITC-FA-MTX when the fluorescence obtained was normalized for the quenching observed in the standard solutions of the dendrimers (See e.g., FIG. 18B).
(§3) The effect of free FA on the uptake of the dendrimers was tested in KB cells that express both high and low FAR. The binding of the conjugates to the low FAR-expressing KB cells was 30% of that of the high FAR-expressing cells for both the G5-FITC-FA and G5-FITC-FA-MTX (See, for e.g., FIG. 19, left panel). […] The binding and internalization of the dendrimers to KB cells was assessed by confocal microscopy. KB cells were incubated with 250 nM of the indicated dendrimers for 24 hours and confocal images were taken. Conjugates containing the targeting molecule FA internalized into KB cells within 24 h (See, e.g., FIG. 20).

s.c. human KB xenografts = assay: Targeted drug delivery, tumor growth and survival in SCID mice with KB xenografts; assay type: in vivo, SCID CB-17 mice; conditions: first trial, up to 15 injections; cumulative 5.0 mg/kg methotrexate equivalents or equimolar dendrimer
Description: Recipient animal and tumor model.
Delivery of targeted nanoparticle therapeutic. Twice weekly, SCID mice with s.c. KB xenografts, starting on day 4 after tumor implantation, received via the tail vein an injection of either targeted or nontargeted conjugate containing methotrexate, a conjugate without methotrexate, free methotrexate, or saline as a control. The compounds were delivered in a 0.2 mL volume of saline per 20 g of mouse. The single dose of methotrexate delivered each time equaled 0.33 mg/kg. The higher doses of 1.67 and 3.33 mg/kg free methotrexate were also tested. The conjugates were delivered at equimolar concentration of methotrexate calculated based on the number of methotrexate molecules present in a nanoparticle. The conjugate without methotrexate was delivered at equimolar concentration of dendrimer. In the initial trial, six groups of mice with five mice in each group received up to 15 injections. In the follow-up trial, mice received up to 28 injections dependent on their survival. The body weights of the mice were monitored throughout the experiment as an indication of adverse effects of the drug. Histopathology of multiple organs was done at the termination of each trial and each time mouse had to be euthanized due to toxic effects or tumor burden. Tissues from lung, heart, liver, pancreas, spleen, kidney, and tumor were analyzed. Additionally, cells were isolated from tumors, stained with targeted fluorescein-labeled conjugate, and tested for the presence of folic acid receptors using flow cytometer.
Targeted drug delivery to tumor cells through the folate receptor. The efficacy of different doses of conjugates was tested on SCID CB-17 mice bearing s.c. human KB xenografts and was compared with equivalent and higher doses of free methotrexate. Mice were maintained on the folic acid-deficient diet for 3 weeks before injection of the KB tumor cells to achieve circulating levels of folic acid that approach those in human serum and to prevent down-regulation of folate receptors on tumor xenografts (See, Mathias et al., J Nucl Med 29, 1579 (1998)). Six groups of SCID mice with five mice in each group were injected s.c. on one flank with 5×10^6 KB cells in 0.2 mL PBS suspension. The highest total dose of G5-FI-FA-MTX therapeutic used equals 55.0 mg/kg and is equivalent to a 5.0 mg/kg total cumulative dose of free methotrexate (FIG. 29). The therapeutic dose of the conjugate was compared with three cumulative doses of free methotrexate equivalent to 33.3, 21.7, and 5.0 mg/kg accumulated in 10 to 15 injections based on mouse survival. Saline and the conjugate without methotrexate (G5-FI-FA) were used as controls.

[5] = test system: low FAR-expressing KB cells; assay: Cellular uptake/binding of dendrimers in low-FAR KB cells, flow cytometry; assay type: cell-based, human
Description: as §1, §2, §3
Time course and dose dependent inhibition of cell growth.

[6] = 50 μM FA, 24 h, then 5 days drug-free, XTT

Molecule | amount in feces [1] | concentration in KB tumor [1] | concentration in liver [1] | time of excretion, primarily through the kidney [1] [h] | inhibition of cell growth, XTT (KB cells [3]) | further results
G5-(Ac)50-(Ac-3H)54-(FA)6 [G5-^3H-FA] | very low amounts | increases over the first 4 days | increases over the first 4 days | ≤ 24 | – | cumulative clearance compared with G5-3H [1]: lower
Nc1nc2ncc(CNc3ccc(C(=O)N[C@@H](CCC(=O)O)C(=O)O)cc3)nc2c(=O)[nH]1 [FA, Folic Acid, reference compound] | – | – | – | – | – | reversal of MTX-induced growth-arrest by FA (KB cells [2]): almost completely reversed; effect of excess free FA on growth inhibition by conjugate or free MTX (KB cells [3]; [6]): blocked growth inhibition; increase of cell growth above control cells (KB cells [3]; [6]): 20%
G5-(Ac)82-(FITC)5 [G5-FITC] | – | – | – | – | not growth-inhibitory | detection of dendrimer in KB cells ([4]; control dendrimer without FA): not detected
G5-(Ac)82-(FITC)5-(FA)5 [G5-FITC-FA] | – | – | – | – | not growth-inhibitory | effect on tumor growth (s.c. human KB xenografts): no therapeutic effect; effect of free FA on uptake, high-FAR expressing cells ([4]; 50 μM FA, dendrimer 30 nM): completely blocked; binding to low FAR-expressing KB cells relative to high FAR-expressing cells [5]: 30%; effect of free FA on uptake, low-FAR expressing cells ([5]; 50 μM FA, dendrimer 30 nM): completely blocked
G5-(Ac)50-(Ac-3H)54 [G5-^3H] | very low amounts | decreased rapidly | decreased rapidly | ≤ 24 | – | –
